Holding throughout (assay type): physicochemical
Data set [1] in a line: Physical and chemical stability on storage (XRPD, HPLC). The method, then: A certain amount of Form CSIV of the present disclosure was sealed up and stored under different conditions of 25° C./60% RH, 40° C./75% RH, and 60° C./75% RH. Crystalline form and chemical purity were checked by XRPD and HPLC, respectively.
A certain amount of Form CSV of the present disclosure was stored under different conditions of 40° C./75% RH and 60° C./75% RH in open and sealed dishes. Crystalline form and chemical purity were checked by XRPD and HPLC, respectively.

The nature of data set [2]: Kinetic solubility in SGF. The settings on record: for 1 hour Concentration: equilibrated 1 h. The method, then: When solubility test is used to predict the in vivo performance of a drug, it is critical to simulate in vivo conditions as closely as possible. SGF can be used to simulate the condition in vivo and predict the effects of eating, thus solubility in this medium is closer to that in vivo.
Approximately 5-20 mg of Form CSIV and 5-20 mg Form CSV of the present disclosure were suspended into 2.0 mL of SGF to get suspensions. After equilibrated for 1 h and 24 h, concentrations (μg/mL) of these solutions were measured by UPLC.

Data set [3] can be described thus: Compressibility (manual tablet press, tensile strength). As to conditions: for Diameter / Hardness / Thickness: 80 mg, φ6 mm round tooling, 10 kN, 24 h at room temperature; for Diameter / Hardness / Thickness / Tensile strength: tablets 1 and 2; for Average tensile strength / Tensile strength: T=2H/πDL. The method, then: ENERPAC manual tablet press was used for compression. 80 mg of Form CSIV and 80 mg of Form I were weighed and added into the dies of a φ6 mm round tooling, compressed at 10 kN manually, then stored at room temperature for 24 h. Diameter (D) and thickness (L) were tested with caliper. When elastic recovery is complete, hardness (H) was tested with an intelligent tablet hardness tester. Tensile strength of the powder was calculated with the following formula: T=2H/πDL. Under a certain force, the greater the tensile strength, the better the compressibility.

A short description of data set [4]: Hygroscicity by dynamic vapor sorption (DVS). The settings on record: for hygroscopicity class / weight gain: 25° C./80% RH; for hygroscopicity class: Chinese Pharmacopoeia definition; for weight gain: DVS; for crystalline state before and after DVS: cycle of 0-95% RH. The method, then: Dynamic Vapor Sorption (DVS) was measured via an SMS (Surface Measurement Systems Ltd.) intrinsic DVS instrument. Typical Parameters for DVS test are as follows: • Temperature: 25° C. • Gas and flow rate: N2, 200 mL/min • RH range: 0% RH to 95% RH
Dynamic vapor sorption (DVS) analyzer was applied to test hygroscopicity of Form CSIV and Form CSV with certain amount of samples. The weight gains at each relative humidity were recorded in a cycle of 0-95% RH. […] The weight gain of Form CSV under 25° C./80% RH is 0.13%. […] The DVS curve of Form CSIV and Form CSV are shown in FIG. 9 and FIG. 10, respectively.
Description and definition of hygroscopicity (general notice 9103 drug hygroscopicity test guidelines in 2020 edition of Chinese Pharmacopoeia, test at 25° C.±1° C., 80% RH±2% RH. The definition of hygroscopicity in the 9th European Pharmacopoeia 5.11 is consistent with the Chinese Pharmacopoeia). • deliquescent: Sufficient water is absorbed to form a solution; • very hygroscopic: Increase in mass is equal to or greater than 15%; • hygroscopic: Increase in mass is less than 15% and equal to or greater than 2%; • slightly hygroscopic: Increase in mass is less than 2% and equal to or greater than 0.2%. • non hygroscopic or almost non hygroscopic: Increase in mass is less than 0.2%.

Data set [5] is described as follows: Physical stability upon grinding (XRPD). The settings on record: ground manually for 5 minutes in a mortar. The method, then:
Form CSV and Form I were grounded manually for 5 minutes in a mortar. Crystalline forms before and after grinding were checked by XRPD. […] Compared with Form I, Form CSV has better physical stability upon grinding.

Setting [6] is: 40° C./75% RH (open), one month.
Setting [7] is: 40° C./75% RH (sealed), one month.
Where [8] appears, read: 60° C./75% RH (sealed), one week.

Converted amounts (≈) assume the structure as drawn. “And” between values parts separate entries of the source, which are not always exact repeats. Equal values may be shown once. “Also recorded” adds a separate entry of the source.

For `CC(C)c1cc(Oc2c(Cl)cc(-n3nc(C#N)c(=O)[nH]c3=O)cc2Cl)n[nH]c1=O` [Form CSIV, 2-(3,5-dichloro-4-((5-isopropyl-6-oxo-1,6-dihydropyridazin-3-yl)oxy)phenyl)-3,5-dioxo-2,3,4,5-tetrahydro-1,2,4-triazine-6-carbonitrile], the “time for which the form is stable / crystalline state doesn't change” value in data set [1] (25° C./60% RH sealed) is given as “at least 6 months”. For the same molecule, the Crystalline form entry in data set [1] (25° C./60% RH sealed, 6 months) is on record as “Form CSIV”. Besides, in data set [1] (40° C./75% RH sealed), the “time for which the form is stable / crystalline state doesn't change” value is recorded as “at least 6 months”. Further, in data set [1] (40° C./75% RH sealed, 6 months), the Crystalline form result was “Form CSIV” and the Purity amounted to 99.76%. In data set [1] (60° C./75% RH sealed), the “time for which crystalline state doesn't change” value is given as “at least 1 month”. The “time for which the form is stable” value in data set [1] (60° C./75% RH sealed, in words) is listed as “at least one month”. Moreover, the Crystalline form entry in data set [1] (60° C./75% RH sealed, one month) was “Form CSIV”. In data set [1] (Initial), the Crystalline form result is on record as “Form CSIV” and the Purity stood at 99.80%. In data set [2] (UPLC), the “1 hour Concentration” value was 11.7 µg/mL. Further, in data set [2] (equilibrated 1 hour), the “solubility relative to that of Form I” value is recorded as 10.6 times. Besides, the “solubility relative to that of Form I” value in data set [2] (equilibrated 24 hours) was 5.0 times. The solubility thermodynamic at 24 h in data set [2] (simulated gastric fluid, thermodynamic from solid, equilibrated 24 h, UPLC, read-out: 24 hours Concentration) was 5.5 µg/mL (≈ 12.6 µM). Besides, in data set [3], the Diameter is 6.03 mm and 6.04 mm; the Hardness is 28.3 kg and 27.7 kg; the Thickness amounted to 2.12 mm. In addition, in data set [3] (compressed at 10 kN), the Average tensile strength is recorded as 1.40 MPa; the Tensile strength was 1.41 MPa and 1.38 MPa. Moreover, the “crystalline state before and after tableting” value in data set [3] (compressed at 10 kN, XRPD) was “remains unchanged before and after tableting”. Besides, in data set [4], the hygroscopicity class entry is “slightly hygroscopic (Increase in mass is less than 2% and equal to or greater than 0.2%)”; the weight gain is given as 0.58%; the “crystalline state before and after DVS” value is “remains unchanged before and after DVS”.

For the molecule `CC(C)c1cc(Oc2c(Cl)cc(-n3nc(C#N)c(=O)[nH]c3=O)cc2Cl)n[nH]c1=O` [Form CSV, 2-(3,5-dichloro-4-((5-isopropyl-6-oxo-1,6-dihydropyridazin-3-yl)oxy)phenyl)-3,5-dioxo-2,3,4,5-tetrahydro-1,2,4-triazine-6-carbonitrile], the “crystalline state after grinding” value in data set [5] is “does not change before and after grinding; also recorded: doesn't change after grinding”. Moreover, the Crystalline form entry in data set [1] (setting [6]) is on record as “Form CSV”; in data set [1] (setting [7]), “Form CSV”; in data set [1] (60° C./75% RH (open), one week) it was “Form CSV”; in data set [1] (setting [8]), “Form CSV”; in data set [1] (Initial), “Form CSV”. The Purity in data set [1] (setting [6]) is reported as 99.81%; in data set [1] (setting [7]), 99.85%; in data set [1] (60° C./75% RH (open), one week), 99.86%; in data set [1] (setting [8]) it was 99.87%. Further, the “chemical purity during storage” value in data set [1] (40° C./75% RH one month, 60° C./75% RH one week) is “above 99.8%”. Moreover, the “time for which the form is stable” value in data set [1] (40° C./75% RH open and sealed dishes, in words) is on record as “at least one months”. For the same molecule, the “time for which crystalline state doesn't change” value in data set [1] (40° C./75% RH sealed, in words) was “at least one month”. Further, the “time for which the form is stable / crystalline form doesn't change” value in data set [1] (60° C./75% RH open and sealed, in words) was “at least one week”. In addition, the “1 hour Concentration” value in data set [2] (UPLC) was found to be 7.8 µg/mL. Also, the “solubility relative to that of Form I” value in data set [2] (equilibrated 1 hour) was found to be 7.1 times; in data set [2] (equilibrated 24 hours), 8.7 times. For the same molecule, the “24 hours Concentration” value in data set [2] (equilibrated 24 h, UPLC) came to 9.6 µg/mL. Also, the hygroscopicity class result in data set [4] is listed as “non hygroscopic or almost non-hygroscopic”. Moreover, the weight gain in data set [4] stood at 0.13%. The “crystalline state before and after DVS” value in data set [4] was “remains unchanged before and after DVS”.

For the molecule `CC(C)c1cc(Oc2c(Cl)cc(-n3nc(C#N)c(=O)[nH]c3=O)cc2Cl)n[nH]c1=O` [Form I, 2-(3,5-dichloro-4-((5-isopropyl-6-oxo-1,6-dihydropyridazin-3-yl)oxy)phenyl)-3,5-dioxo-2,3,4,5-tetrahydro-1,2,4-triazine-6-carbonitrile, reference compound], the “crystalline state after grinding” value in data set [5] is recorded as “almost transform into amorphous after grinding; also recorded: transforms into amorphous after grinding”. In addition, in data set [3], the Diameter was 6.01 mm and 6.11 mm; the Hardness was 8.7 kg and 7.9 kg; the Thickness was 2.11 mm and 2.00 mm. Besides, in data set [3] (compressed at 10 kN), the Average tensile strength is 0.43 MPa; the Tensile strength was 0.44 MPa and 0.41 MPa.

Values taken from patent publication US12428402B2, “Resmetirom crystal, preparation method for same, and uses thereof” (CRYSTAL PHARMACEUTICAL (SUZHOU) CO., LTD., priority 2019, dated 2025).
